Patent publication US8034940B2, “Modulators of glucocorticoid receptor, AP-1, and/or NF-κB activity and use thereof” (Bristol-Myers Squibb Company, priority 2006, dated 2011)

System: AP-1 induced transcriptional activity
Assay: Cellular Transrepressional Assay (AP-1 luciferase reporter, PMA-activated A549 cells)
Type: cell-based
Details: for Emax: A549, 7 h, read-out: AP-1 Max % inh (Cellular Transrepression Assay)
In short: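 Compounds tested from 0.1 nM to 40 μM during a 7 h PMA (10 ng/ml) stimulation of A549 cells stably transfected with 7× AP-1 sites driving luciferase. Repression expressed as % reduction of PMA-induced luminescence; EC50 by curve fitting.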

[1] = Homo sapiens, maximum inhibition, Cellular Transrepression Assay
[2] = Homo sapiens, A549, Cellular Transrepression Assay

Structure (SMILES)	EC50 [2]	EC50 (Cellular Transrepression Assay)	Emax [1]	AP-1 Max % inh (Cellular Transrepression Assay) (maximum inhibition, Cellular Transrepression Assay)
CC(C)(C(=O)Nc1nnc(CO)s1)[C@H]1c2ccccc2Oc2nc(-c3ccc(C(=O)N4CCCC4)c(F)c3)ccc21 [Example 423]	82 nM	–	30.4%	–
CC(C)(C(=O)Nc1nnc(N)s1)[C@H]1c2ccccc2Oc2nc(-c3ccc(C(=O)N4CCCC4)c(F)c3)ccc21 [Example 428]	30.3 nM	–	26.9%	–
CC(C)(C(=O)Nc1nnc(CF)s1)[C@H]1c2ccccc2Oc2nc(-c3ccc(C(=O)N4CCOCC4)cc3)ccc21 [Example 430]	34.7 nM	–	47.2%	–
CC(C)(C(=O)Nc1nnc(C#N)s1)[C@H]1c2ccccc2Oc2nc(-c3ccc(C(=O)N4CCOCC4)cc3)ccc21 [Example 434]	–	197 nM	–	38.45%
CCCC/C=C/c1ccc2c(n1)Oc1ccccc1[C@@H]2C(C)(C)C(=O)Nc1nncs1 [Example 436]	95.7 nM	–	44%	–
Cc1csc(NC(=O)C(C)(C)[C@H]2c3ccccc3Oc3nc(-c4ccc(C(=O)N(C)C)cc4)ccc32)n1 [Example 443]	134 nM	–	51.7%	–
Cc1nsc(NC(=O)C(C)(C)[C@H]2c3ccccc3Oc3nc(-c4ccc(C(=O)N(C)C)cc4)ccc32)n1 [Example 449]	126 nM	–	48.9%	–
CC(=O)c1ccc(-c2ccc3c(n2)Oc2ccccc2[C@@H]3C(C)(C)C(=O)Nc2nncs2)s1 [Example 452]	11.1 nM	–	53.4%	–
CC(C)(C(=O)Nc1ncns1)[C@H]1c2ccccc2Oc2nc(-c3ccc(C(=O)N4CCCC4)cc3)ccc21 [Example 455]	24.6 nM	–	58.6%	–
CC(C)(C(=O)Nc1ncns1)[C@H]1c2ccccc2Oc2nc(-c3ccc(C(=O)N4CCCC4)c(F)c3)ccc21 [Example 456]	41.5 nM	–	45.8%	–
CC(C)(C(=O)Nc1ncns1)[C@H]1c2ccccc2Oc2nc(-c3ccc(C(=O)N4CCOCC4)cc3)ccc21 [Example 457]	16.6 nM	–	51.9%	–
CC(C)Oc1ccc(-c2ccc3c(n2)Oc2ccccc2[C@@H]3C(C)(C)C(=O)Nc2ncns2)cc1 [Example 458]	53.2 nM	–	35.2%	–
CC(C)Oc1ccc(-c2ccc3c(n2)Oc2ccccc2[C@@H]3C(C)(C)C(=O)Nc2ncns2)cc1F [Example 459]	102 nM	–	35.4%	–
Cc1nnc(NC(=O)C(C)(C)[C@H]2c3ccccc3Oc3nc(-c4ccc(C(=O)N5CCCC5)cc4)ccc32)s1 [Example 460]	30.3 nM	–	56.9%	–
CCN(C)C(=O)c1ccc(-c2ccc3c(n2)Oc2ccccc2[C@@H]3C(C)(C)C(=O)Nc2nnc(C)s2)cc1 [Example 464]	18.2 nM	–	54%	–
Cc1nnc(NC(=O)C(C)(C)[C@H]2c3ccccc3Oc3nc(-c4ccc(C(=O)N5CCOCC5)cc4)ccc32)s1 [Example 465]	16.6 nM	–	61.5%	–
Cc1nnc(NC(=O)C(C)(C)[C@H]2c3ccccc3Oc3nc(-c4ccc(C(=O)N5CCC(F)(F)C5)cc4)ccc32)s1 [Example 466]	28.2 nM	–	56.1%	–
CCN(C)C(=O)c1ccc(-c2ccc3c(n2)Oc2ccccc2[C@@H]3C(C)(C)C(=O)Nc2ncns2)cc1 [Example 467]	15 nM	–	57.5%	–
CC(C)(C(=O)Nc1ncns1)[C@H]1c2ccccc2Oc2nc(-c3ccc(C(=O)N4CCOCC4)c(F)c3)ccc21 [Example 468]	35.4 nM	–	53.3%	–

Further molecules by falling EC50 [2], results first:

EC50 [2]	EC50 (Cellular Transrepression Assay)	Structure (SMILES)	Emax [1]	AP-1 Max % inh (Cellular Transrepression Assay) (maximum inhibition, Cellular Transrepression Assay)
413 nM	–	CN(C)C(=O)c1ccc(-c2ccc3c(n2)Oc2ccccc2[C@@H]3C(C)(C)C(=O)Nc2nnc(C(F)(F)F)s2)cc1 [Example 446]	27.7%	–
292 nM	–	CC(C)(C(=O)Nc1nnc(C#N)s1)[C@H]1c2ccccc2Oc2nc(-c3ccc(C(=O)N4CCCC4)c(F)c3)ccc21 [Example 435]	27.9%	–
188 nM	–	C[S+]([O-])c1cnc(NC(=O)C(C)(C)[C@H]2c3ccccc3Oc3nc(-c4ccc(C(=O)N5CCCC5)c(F)c4)ccc32)s1 (stereo partly shown) [Example 427]	25.1%	–
178 nM	–	CN(C)C(=O)c1ccc(-c2ccc3c(n2)Oc2ccccc2[C@@H]3C(C)(C)C(=O)Nc2nnc(C3CC3)s2)cc1 [Example 448]	56.6%	–
150 nM	–	CSc1cnc(NC(=O)C(C)(C)[C@H]2c3ccccc3Oc3nc(-c4ccc(C(=O)N5CCCC5)c(F)c4)ccc32)s1 [Example 424]	59.6%	–
127 nM	–	CN(C)C(=O)c1ccc(-c2ccc3c(n2)Oc2ccccc2C3C(C)(C)C(=O)NC2=NCCS2)cc1 (stereo not shown) [Example 442]	50.1%	–
117 nM	–	CC(C)(C(=O)Nc1ncc(S(C)(=O)=O)s1)[C@H]1c2ccccc2Oc2nc(-c3ccc(C(=O)N4CCCC4)c(F)c3)ccc21 [Example 426]	31.8%	–
95.4 nM	–	CCc1nnc(NC(=O)C(C)(C)[C@H]2c3ccccc3Oc3nc(-c4ccc(C(=O)N(C)C)cc4)ccc32)s1 [Example 447]	53%	–
84.4 nM	–	CSc1nnc(NC(=O)C(C)(C)[C@H]2c3ccccc3Oc3nc(-c4ccc(C(=O)N5CCCC5)c(F)c4)ccc32)s1 [Example 425]	49.9%	–
69 nM	–	CC(C)(C(=O)Nc1nnc(CF)s1)[C@H]1c2ccccc2Oc2nc(-c3ccc(C(=O)N4CCCC4)c(F)c3)ccc21 [Example 431]	41.8%	–
67.3 nM	–	CN(C)c1nnc(NC(=O)C(C)(C)[C@H]2c3ccccc3Oc3nc(-c4ccc(C(=O)N5CCCC5)c(F)c4)ccc32)s1 [Example 429]	41.8%	–
63.9 nM	–	CN(C)C(=O)c1ccc(-c2ccc3c(n2)Oc2ccccc2C3C(C)(C)C(=O)Nc2ncns2)cc1 (stereo not shown) [Example 441]	52.4%	–
63.9 nM	–	CN(C)C(=O)c1ccc(-c2ccc3c(n2)Oc2ccccc2[C@@H]3C(C)(C)C(=O)Nc2ncns2)cc1 [Example 471]	52.4%	–
59.2 nM	–	CC(C)(C(=O)Nc1nncs1)[C@H]1c2ccccc2Oc2nc(-c3cn[nH]c3)ccc21 [Example 450]	26.3%	–
53.4 nM	–	Cc1nnc(NC(=O)C(C)(C)[C@H]2c3ccccc3Oc3nc(-c4ccc(OC(C)C)cc4)ccc32)s1 [Example 461]	50.8%	–
52.7 nM	–	CN(C)C(=O)c1ccc(-c2ccc3c(n2)Oc2ccccc2[C@@H]3C(C)(C)C(=O)Nc2nnc(CF)s2)cc1 [Example 432]	40.2%	–
45.3 nM	–	CC(C)(C(=O)Nc1nncs1)[C@H]1c2ccccc2Oc2nc(-c3ccc(C(=O)N4CCOCC4)s3)ccc21 [Example 463]	26.2%	–
44.2 nM	–	Cc1cnc(NC(=O)C(C)(C)[C@H]2c3ccccc3Oc3nc(-c4ccc(C(=O)N(C)C)cc4)ccc32)s1 [Example 444]	57.5%	–
41 nM	–	CC(C)(C(=O)Nc1nnc(CF)s1)[C@H]1c2ccccc2Oc2nc(-c3ccc(C(=O)N4CCCC4)cc3)ccc21 [Example 433]	46.2%	–
38.5 nM	–	Cc1nnc(NC(=O)C(C)(C)[C@H]2c3ccccc3Oc3nc(-c4ccc(C(=O)N(C)C)cc4)ccc32)s1 [Example 445]	45.7%	–
25.3 nM	–	CCN(C)C(=O)c1ccc(-c2ccc3c(n2)Oc2ccccc2[C@@H]3C(C)(C)C(=O)Nc2ncns2)cc1F [Example 454]	49.5%	–
24.6 nM	–	CC(C)(C(=O)Nc1nncs1)[C@H]1c2ccccc2Oc2nc(-c3ccc(CO)s3)ccc21 [Example 470]	43%	–
